Test results: patent publication US20080021069A1, “Receptor Function Regulating Agent” (TAKEDA PHARMACEUTICAL COMPANY LIMITED, priority 2004, published 2008)

Key:
human GPR40 = molecular target: T1, human GPR40 (Homo sapiens, UniProt O14842); experiment: GPR40 antagonist activity with changes in intracellular calcium concentration as index (NFAT-luciferase reporter, CHO(dhfr-)/GPR40-NFAT-Luc cells); format: cell-based; conditions: CHO cell line expressing human GPR40, NFAT-Luc reporter; GPR40 agonist 3-(4-((6-benzyloxy-2',6'-dimethyl-biphenyl-3-yl)methoxy)phenyl)propanoic acid 40 nM; 4 hr culture; 0.1% fatty acid-free BSA
T1 construct: expressed in transfected cells; host or cells: CHO(dhfr-) cells: line CHO-hGPR40 No. 104 of WO2004/041266, with a stably expressed NFAT-TA-Luc reporter (CHO(dhfr-)/GPR40-NFAT-Luc)
Excerpt: Evaluation of GPR40 antagonist activity with changes in intracellular calcium concentration as index
An assay system of GPR40 antagonist was established as follows. In this assay system, as the GPR40 agonist, 3-(4-((6-benzyloxy-2′,6′-dimethyl-biphenyl-3-yl)methoxy)phenyl)propanoic acid (compound described in Example 340 of WO2004/041266) was used.
First, NFAT-TA was cut out from pNFAT-TA-Luc (manufactured by BD Bioscience Clontech) with HindIII and NheI, the recovered fragment was inserted into pGL3 basic neo digested with HindIII and NheI to give plasmid:pGL3 basic neo NFAT-TA-Luc.
This plasmid was used for “the CHO cell line (CHO-hGPR40 No. 104), which was made to express human GPR40” described in WO2004/041266, and a cell line CHO(dhfr-)/GPR40-NFAT-Luc, wherein a reporter gene was stably expressed by a method known per se, was prepared.
This cell line was diluted with a medium (nucleic acid-free MEM (Minimum Essential Medium)—α medium added with dialyzed FBS (Fetal Bovine Serum) to a final concentration of 10%) in such a manner that 2×10^4 cells/100 μl would be contained, dispensed to a white walled 96 well plate (manufactured by Coster) by 100 μl per well, and cultured overnight in a CO2 incubator. Then the medium was removed by suction from the 96 well plate, and a 10 mM test compound-dimethyl sulfoxide (manufactured by Wako Pure Chemical Industries, Ltd.) solution diluted with a medium (nucleic acid-free MEM—α medium added with bovine serum albumin (BSA) free of fatty acid to a final concentration of 0.1%) to each concentration was added by 50 μl per well. Further, 3-(4-((6-benzyloxy-2′,6′-dimethyl-biphenyl-3-yl)methoxy)phenyl)propanoic acid diluted with a medium (nucleic acid-free MEM-α (medium added with BSA free of fatty acid to a final concentration of 0.1%) to a final concentration of 40 nM was added to the 96 well plate by 50 μl per well.
After culture in a CO2 incubator for 4 hr, the culture medium was removed from the 96 well plate. Then, PicaGene (manufactured by TOYO INK MFG. CO., LTD.) was added to the 96 well plate, and the luciferase activity was determined using PerkinElmer ARVO (trade name, manufactured by PerkinElmer), based on which changes in the intracellular calcium concentration were evaluated. After assay of luciferase activity, nonlinear regression analysis was performed using PRISM 3 (trade name, manufactured by GraphPad) and IC50 value was calculated with changes in the intracellular calcium concentration as an index.
In the same manner as in Experimental Example 1, the IC50 value of the compound of the present invention was calculated.

rat pancreatic islet = experiment: Insulin secretion suppressive activity using rat pancreatic islet (palmitic acid stimulation); format: cell-based; conditions: glucose 16 mM, compound 10 μM, 30 min, mean ± SD (n = 4)
Description: The effect of the compound of the present invention on the insulin secretion from the rat pancreatic islet, which is induced by palmitic acid stimulation, was evaluated.
Male SD rats (7-week-old, Clea Japan, Inc.) were anesthetized with Nembutal (50 mg/kg, i.p.) and subjected to laparotomy. While confirming and following the course of the common bile duct to the peripheral thereof, and the duct was ligated at the liver side immediately from the opening of the duodenum. Then, the common bile duct was detached from the surrounding tissue on the duodenum side from the hepatic duct bifurcation and a thread was placed thereon. An indwelling needle (22G, manufactured by TERUMO CORPORATION) was inserted into the common bile duct at a position on the liver side from this part and fixed by ligation with the thread placed earlier thereon. 10 ml of 150 mg/ml collagenase (manufactured by Wako Pure Chemical Industries, Ltd., for cell dispersion)-Hank's Balanced Salt Solution (HBSS, manufactured by Invitrogen)-1% Bovine Serum Albumin (BSA, manufactured by Wako Pure Chemical Industries, Ltd.) −0.01 mg/ml DnaseI (manufactured by Roche Molecular Biochemicals)-2.5% N-2-Hydroxyethylpiperazine-N′-2-Ethane Sulfonic Acid (HEPES, manufactured by Invitrogen) was injected from the common bile duct. […]

T1 sequence (O14842 whole entry): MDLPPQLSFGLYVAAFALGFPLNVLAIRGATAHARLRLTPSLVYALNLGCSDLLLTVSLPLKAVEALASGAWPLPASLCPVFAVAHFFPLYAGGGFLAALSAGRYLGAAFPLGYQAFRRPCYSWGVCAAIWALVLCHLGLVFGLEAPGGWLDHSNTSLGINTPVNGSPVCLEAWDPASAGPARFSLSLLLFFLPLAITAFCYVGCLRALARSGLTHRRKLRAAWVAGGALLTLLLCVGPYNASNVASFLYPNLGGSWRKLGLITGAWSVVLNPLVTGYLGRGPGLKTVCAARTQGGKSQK

melting point: 129 to 130 °C
IC50 (human GPR40): < 100 nM
Compound: CCOc1ccc(-n2c(SCc3ccc(Cl)cc3)nc3ccc(Cl)cc32)cc1 [Example 10, 6-chloro-2-[(4-chlorobenzyl)thio]-1-(4-ethoxyphenyl)-1H-benzimidazole]
insulin secretion amount (rat pancreatic islet; palmitic acid 0 mM): 353 ± 122 pg/ng DNA
insulin secretion amount (rat pancreatic islet; palmitic acid 1 mM): 369 ± 141 pg/ng DNA
